Source: PMC11762957, “Rescue of Mutant CFTR Channel Activity by Investigational Co-Potentiator Therapy” (Biomedicines, 2025)

Assays:
Format in all cases: cell-based
p.Arg334Trp-CFTR = biological target: T1, p.Arg334Trp-CFTR (Homo sapiens, UniProt P13569, R334W); experiment: HS-YFP assay on a plate reader (CFTR-mediated I- influx), CFBE41o- cells co-expressing HS-YFP and p.Arg334Trp-CFTR
T1 construct: expressed in transfected cells
Description: Parental CFBE41o^− cells stably expressing HS-YFP (p.His148Gln-Ile152Leu) were cultured in minimum essential medium (MEM, #10-010-CV, Corning, VA, USA) supplemented with 10% fetal bovine serum (#LTI 10270-106, Gibco, Carlsbad, CA, USA). CFBE41o^− cells stably co-expressing HS-YFP (p.Phe46Leu-His148Gln-Ile152Leu) and p.Arg334Trp-CFTR were cultured in a similar medium including 2 µg mL^−1 puromycin (#P8833, Sigma-Aldrich, St. Louis, MO, USA). For the YFP assay of CFTR activity, cells were plated (30,000 cells/well) on 96-well clear-bottom, black-walled microplates (#655090, Greiner Bio-One, Kremsmünster, Austria). All cells were maintained in a humidified incubator (5% CO2) at 37 °C.
(§1) CFTR activity was determined by the HS-YFP microfluorimetric assay (described in detail in previous studies) using CFBE41o^− cells expressing HS-YFP together with stably expressed p.Arg334Trp-CFTR or transiently transfected with CFTR cDNA (variants p.Pro205Ser, p.Ser549Arg, p.Gly551Asp, p.Ser945Leu, and p.Gly1349Asp) cloned into pcDNA5. Briefly, cells were washed with phosphate-buffered saline (PBS; in mM: 137 NaCl, 2.7 KCl, 8.1 Na2HPO4, 1.5 KH2PO4, 1 CaCl2, and 0.5 MgCl2) and then incubated for 30 min at 37 °C with 60 μL of PBS plus Fsk (5 μM) and test compound(s) to stimulate CFTR channels. DMSO (vehicle) and VX-770 (1 μM) were used as negative and positive controls, respectively. All conditions were performed in triplicate on each plate. Thereafter, cells were transferred to a microplate reader (Tecan Infinite 200 Pro) equipped with high-quality excitation (485 ± 20 nm) and emission (535 ± 25 nm) filters for YFP. Each reading consisted of a continuous 14 s fluorescence recording with 2 s before and 12 s after injection of 165 μL of an iodide-containing solution (PBS with Cl^− replaced by I^−; final I^− concentration: 100 mM). Data were normalized to the initial background-subtracted fluorescence. To determine the I^− influx rate, the final 11 s of the data for each well were fitted with an exponential function to extrapolate the initial slope (dF/dt).
All the compounds (Scheme 1) were tested in CFBE41o^− cells co-expressing HS-YFP and p.Arg334Trp-CFTR to assess CFTR-mediated I^− influx based on fluorescence quenching. The cells were incubated for 30 min with Fsk (an adenyl cyclase activator that increases intracellular cAMP levels) plus the test compounds in two different concentrations (3 and 20 μM). Thereafter, the efficacy of the compounds in rescuing CFTR activity was determined by the YFP quenching rate and normalized to DMSO (negative control). […] Such an increase was equivalent to that of the cells treated with VX-770 or apigenin (used as positive controls).
Next, the active compounds were submitted for further analysis for evaluation of their potency and efficacy. To this aim, the compounds were retested as potentiators at various concentrations in the range 0.16–30 μM with Fsk on CFBE41o^− cells.

p.Ser549Arg-CFTR = biological target: T2, p.Ser549Arg-CFTR (Homo sapiens, UniProt P13569, S549R); experiment: HS-YFP assay, CFBE41o- cells transiently transfected with p.Ser549Arg-CFTR; conditions: c.1645A>C or c.1647T>G, Fsk 5 μM
T2 construct: expressed in transfected cells; host or cells: CFBE41o- cells stably expressing HS-YFP, transient transfection of pcDNA5-CFTR
T2 sequence (P13569 whole entry S549R): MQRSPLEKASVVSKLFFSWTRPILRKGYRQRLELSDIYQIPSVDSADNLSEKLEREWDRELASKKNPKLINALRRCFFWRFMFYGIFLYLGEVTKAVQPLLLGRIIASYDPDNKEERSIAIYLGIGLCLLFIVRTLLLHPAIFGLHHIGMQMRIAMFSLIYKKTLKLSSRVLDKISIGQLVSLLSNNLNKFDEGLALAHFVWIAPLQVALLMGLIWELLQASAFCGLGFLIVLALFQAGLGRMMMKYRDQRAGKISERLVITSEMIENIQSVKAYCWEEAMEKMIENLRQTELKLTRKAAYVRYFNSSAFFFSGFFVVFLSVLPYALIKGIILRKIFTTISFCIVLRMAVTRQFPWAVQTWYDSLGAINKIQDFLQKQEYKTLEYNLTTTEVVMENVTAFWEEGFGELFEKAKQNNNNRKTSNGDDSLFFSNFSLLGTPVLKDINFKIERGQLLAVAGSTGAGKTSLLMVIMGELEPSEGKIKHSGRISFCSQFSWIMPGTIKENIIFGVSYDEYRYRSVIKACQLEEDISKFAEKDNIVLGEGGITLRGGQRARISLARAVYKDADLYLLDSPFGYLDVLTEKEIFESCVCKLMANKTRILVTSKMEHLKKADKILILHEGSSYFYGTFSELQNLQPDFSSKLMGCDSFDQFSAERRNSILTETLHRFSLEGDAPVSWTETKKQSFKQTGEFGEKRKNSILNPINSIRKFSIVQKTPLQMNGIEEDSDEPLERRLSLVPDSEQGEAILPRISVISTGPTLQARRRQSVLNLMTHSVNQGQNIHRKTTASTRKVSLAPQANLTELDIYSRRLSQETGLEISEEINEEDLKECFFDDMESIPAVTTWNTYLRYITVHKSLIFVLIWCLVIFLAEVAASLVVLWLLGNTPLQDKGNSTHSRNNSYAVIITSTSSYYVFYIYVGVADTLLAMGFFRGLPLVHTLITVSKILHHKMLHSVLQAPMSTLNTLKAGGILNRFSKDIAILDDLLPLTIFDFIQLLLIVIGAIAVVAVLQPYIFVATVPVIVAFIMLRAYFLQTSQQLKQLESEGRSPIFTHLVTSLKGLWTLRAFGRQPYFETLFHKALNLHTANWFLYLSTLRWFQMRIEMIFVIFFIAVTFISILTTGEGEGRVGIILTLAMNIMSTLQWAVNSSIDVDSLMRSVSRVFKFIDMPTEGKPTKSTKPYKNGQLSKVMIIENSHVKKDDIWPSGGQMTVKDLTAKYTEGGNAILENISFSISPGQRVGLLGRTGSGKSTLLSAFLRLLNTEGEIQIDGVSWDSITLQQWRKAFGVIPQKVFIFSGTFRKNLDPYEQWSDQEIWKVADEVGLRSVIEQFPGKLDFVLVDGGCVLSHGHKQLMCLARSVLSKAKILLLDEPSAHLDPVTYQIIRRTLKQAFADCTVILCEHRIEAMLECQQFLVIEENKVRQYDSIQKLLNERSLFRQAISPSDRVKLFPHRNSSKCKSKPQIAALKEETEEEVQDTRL
Description: (§2) Site-directed mutagenesis was performed using KOD HOT start DNA polymerase (#71086-3, Sigma-Aldrich, St. Louis, MO, USA), according to manufacturer’s instructions, to insert variants under study (c.613C>T or p.Pro205Ser; c.1645A>C or p.Ser549Arg; c.1647T>G or p.Ser549Arg; c.1652G>A or p.Gly551Asp; c.2834C>T or p.Ser945Leu; and c.4046G>A or p.Gly1349Asp) into CFTR cDNA cloned in the pcDNA5 expression vector. After confirmation by Sanger sequencing, CFBE41o^− cells expressing HS-YFP seeded onto 96-well plates were transfected with 0.1 µg per well of the indicated plasmid. Lipofectamine 3000 (#L3000015, ThermoFischer Scientific, Waltham, MA, USA) was used as the transfection agent diluted in Opti-MEM reduced serum medium (#31985070, ThermoFischer Scientific, Waltham, MA, USA) according to manufacturer’s instructions.
CFTR activity was determined by the HS-YFP microfluorimetric assay (described in detail in previous studies) using CFBE41o^− cells expressing HS-YFP together with stably expressed p.Arg334Trp-CFTR or transiently transfected with CFTR cDNA (variants p.Pro205Ser, p.Ser549Arg, p.Gly551Asp, p.Ser945Leu, and p.Gly1349Asp) cloned into pcDNA5. […] Thereafter, cells were transferred to a microplate reader (Tecan Infinite 200 Pro) equipped with high-quality excitation (485 ± 20 nm) and emission (535 ± 25 nm) filters for YFP. Each reading consisted of a continuous 14 s fluorescence recording with 2 s before and 12 s after injection of 165 μL of an iodide-containing solution (PBS with Cl^− replaced by I^−; final I^− concentration: 100 mM). Data were normalized to the initial background-subtracted fluorescence. […]
(§3) As CFTR variants with similar defect(s) may respond differently to the same treatment(s), we assessed whether LSO-24 or its derivative LSO-150, alone or in combination(s), could rescue CFTR activity for other variants with gating/conductance defects. […] After 24 h, the cells were acutely stimulated with Fsk plus test compound(s), and the cell fluorescence was recorded before and after the addition of an I^−-containing solution. […]

p.Gly1349Asp-CFTR = biological target: T3, p.Gly1349Asp-CFTR (Homo sapiens, UniProt P13569, G1349D); experiment: HS-YFP assay, CFBE41o- cells transiently transfected with p.Gly1349Asp-CFTR; conditions: Fsk 5 μM
T3 construct: expressed in transfected cells; host or cells: CFBE41o- cells stably expressing HS-YFP, transient transfection of pcDNA5-CFTR
T3 sequence (P13569 whole entry G1349D): as the sequence (P13569 whole entry S549R) above, with R549S, G1349D counted along it
Description: as §2, §1, §3

T1 sequence (P13569 whole entry R334W): as the sequence (P13569 whole entry S549R) above, with R334W, R549S counted along it

- EC50 (p.Arg334Trp-CFTR; CFBE41o- cells, with Fsk, concentrations 0.16–30 μM, read-out: EC50 (potentiation of p.Arg334Trp-CFTR activity)): 1010 nM
- CFTR-mediated I- influx (YFP quenching rate normalized to DMSO) (p.Arg334Trp-CFTR; test compound 3 and 20 μM, 30 min with Fsk 5 μM, vs DMSO): increase in CFTR-mediated I^− influx
- Net effect with co-administration of ABBV-3067 (p.Ser549Arg-CFTR; + ABBV-3067 10 μM): increased
- Net effect with co-administration of VX-770 (p.Ser549Arg-CFTR; + VX-770 1 μM): increased
- CFTR activity (fluorescence quenching rate), single compound (p.Ser549Arg-CFTR; LSO-24 5 μM, LSO-150 3 μM): increased CFTR activity
- Fluorescence quenching rate, effect in combination(s) with VX-770 or ABBV-3067 (p.Gly1349Asp-CFTR; LSO-24 5 μM or LSO-150 3 μM added to VX-770 1 μM or ABBV-3067 10 μM): no effect
- Fluorescence quenching rate, single compound (p.Gly1349Asp-CFTR; LSO-24 5 μM, LSO-150 3 μM, VX-770 1 μM, ABBV-3067 10 μM): no effect
Compound: CCOC(=O)c1ccc(-n2cc(C(O)c3ccc(Br)cc3)nn2)cc1 (centres unmarked) [LSO-150]
- Fluorescence quenching rate in combination with ABBV-974 (p.Arg334Trp-CFTR; LSO-150 3 μM or LSO-153 5 μM + ABBV-974 10 μM, Fsk 5 μM, vs single potentiator): further increase in the fluorescence quenching rate
- Fluorescence quenching rate in combination with ABBV-3067 (p.Arg334Trp-CFTR; LSO-150 3 μM or LSO-153 5 μM + ABBV-3067 10 μM, Fsk 5 μM, vs single potentiator): further increase in the fluorescence quenching rate
- Fluorescence quenching rate in combination with VX-770 (p.Arg334Trp-CFTR; LSO-150 3 μM or LSO-153 5 μM + VX-770 1 μM, Fsk 5 μM, vs single potentiator): further increase in the fluorescence quenching rate
- Fluorescence quenching rate in combination with apigenin (p.Arg334Trp-CFTR; LSO-150 3 μM or LSO-153 5 μM + apigenin 50 μM, Fsk 5 μM, vs single potentiator): equivalent cell-fluorescence quenching rate to that of each compound individually
